Values quoted from earlier work, collected in US5827682A, “Two-step conversion of vegetable protein isoflavone conjugates to aglucones” (Protein Technologies International, Inc., priority 1996, dated 1998).

Key:
[1] = test system: Epidermal Growth Factor Receptor; conditions: title of cited article
[2] = test system: human prostate cancer cells; conditions: title of cited article
[3] = test system: human breast cancer cells; conditions: title of cited article; independence from estrogen receptors and the multi-drug resistance gene

For `COc1ccc(-c2coc3cc(O)cc(O)c3c2=O)cc1` [Biochanin A, biochanin A], the “Inhibition of epidermal growth factor receptor tyrosine autophosphorylation” value [1] is listed as “not Epidermal Growth Factor Receptor Tyrosine Autophosphorylation” and the “Inhibition of the growth of human prostate cancer cells” value [2] is listed as “Inhibit the Growth of Human Prostate Cancer Cells”.
In the case of `O=c1c(-c2ccc(O)cc2)coc2cc(O)cc(O)c12` [Genistein, genistein], the “Inhibition of the growth of human breast cancer cells” value [3] is listed as “Inhibition of the Growth of Human Breast Cancer Cells”, the “Inhibition of epidermal growth factor receptor tyrosine autophosphorylation” value [1] is listed as “not Epidermal Growth Factor Receptor Tyrosine Autophosphorylation” and the “Inhibition of the growth of human prostate cancer cells” value [2] is listed as “Inhibit the Growth of Human Prostate Cancer Cells”.
